We go through one compound from paper PMC12066179, “Naphthyl-Substituted Ruthenium(II)–Arene Complexes: Exploring the Impact of Binding Modes on Cytotoxicity in Cancer and Normal Cell Lines” (Bioinorganic Chemistry and Applications, 2025).

Data set [1] concerns MCF-7 (breast cancer) cell line. The experiment in a line: MTT cell viability assay, MCF-7. In kind it is cell-based. As to the method:
(§1) The MTT assay, which is based on the reduction of 3-(4,5-dimethylthiazol-2-yl)-2,5-diphenyltetrazolium bromide to a purple formazan product, was performed to estimate cell viability and growth. To determine the appropriate dose and time, we performed the MTT assay in HepG2, MCF-7, Caco-2, and Vero cell lines. Cell suspensions of […] cell lines were first prepared at densities of 1 × 10^4/mL cells per well of 96-well culture dishes and plated in triplicate. Cells were then incubated with the complexes (2.5, 5, 10, 25, and 50 μM) for 24 and 48 h. After the treatment using the complexes, a 10 μL MTT (Glentham Life Sciences, GC4568) solution was added to each well, followed by incubation for 4 h at 37°C in 5% CO2. The medium was then discarded, and 50 μL DMSO was added to each well to dissolve the formazan crystals. The absorbance was immediately measured at 540 nm using a UV-visible spectrophotometer multiplate reader.
On the technique in general: Tetrazolium assays rely on reduction of a dye to a coloured formazan, in cell work by metabolically active cells.

Data set [2] deals with Caco-2 (colorectal cancer) cell line. The experiment in a line: MTT cell viability assay, Caco-2. In kind it is cell-based. The protocol:
as §1

Data set [3] deals with HepG2 (liver cancer) cell line. The experiment in a line: MTT cell viability assay, HepG2. In kind it is cell-based. The protocol: as §1
The subject of data set [4] is Vero (normal kidney) cell line. In words: MTT cell viability assay, Vero. In kind it is cell-based. Conditions: for IC50: MTT. The protocol:
as §1

The target of another data set is FS-DNA. In words: FS-DNA binding by UV-Vis titration. Conditions: complex 0–15 μM, 20 mM Tris-HCl/NaCl buffer pH 7.2. As to the method: To investigate these interactions, UV-Vis analyses were performed on complexes Ru1-3 (0–15 μM) in 20 mM Tris-HCl/NaCl buffer (pH 7.2) containing 0.1 mM FS-DNA. The corresponding absorption spectra are provided in the supporting information. Aromatic naphthyl groups are known for their ability to intercalate between DNA base pairs. […] While Ru1 is a cationic complex with a high capacity for hydrogen bonding, potentially facilitating ionic interactions with DNA, its overall interaction was weaker compared to the other complexes.
UV-visible spectroscopy was employed to investigate the interaction between […] and Ru1-3. Different concentrations of Ru1-3 (0–15 μM) were titrated against a fixed concentration of FS-DNA ([…]) to monitor changes in absorbance at 260 nm. The analysis of these titration data allowed for the determination of the binding constant (Kb) using the following equation:(1) 1/A−A0=1/Amax−A0+1/C×1/KbAmax−A0, where A is the absorbance of FS-DNA at a specific concentration with increasing complex concentration, A0 is the absorbance of FS-DNA without complex, Amax is the absorbance of the FS-DNA complex at the final state, and C is the complex concentration.

Usually IC50 stands for the concentration needed to halve the response being measured. As for `Cc1ccc(C(C)C)cc1.Cc1ccc(S(=O)(=O)[N](CCNc2cccc3ccccc23)[Ru][Cl])cc1` [Ru2], the IC50 in data set [1] (24 h exposure) turned out to be 2.81 µM; in data set [1] (48 h exposure), 8.75 µM; in data set [2] (24 h exposure), 1.39 µM; in data set [2] (48 h exposure), 3.39 µM; in data set [3] (24 h exposure), 4.72 µM; in data set [3] (48 h exposure), 8.8 µM. The IC50 in data set [4] (24 h exposure) was 7.8 µM; in data set [4] (48 h exposure), 38.3 µM. For the same compound, the “Cytotoxic activity in Vero healthy cell line” value in data set [4] (50–2.5 μM, 24 h and 48 h) is “did not manifest any cytotoxic activity at concentrations other than 50 μM”. Besides, the “Binding constant (Kb) with FS-DNA” value at FS-DNA was 22700 M⁻¹.
